Reference: article PMC8219695 (Nature Communications, 2021)
Where “and” joins values, the source holds several entries; their conditions need not be identical. Equal entries are not always repeated.

How the values were obtained:
[1] = biological target: T1, mMOR (Mus musculus, UniProt P42866); test: CAMYEL BRET cAMP agonist assay at mMOR; format: cell-based; conditions: mMOR
T1 construct: signal peptide (heterologous, not specified) (N); expressed in transfected cells; pcDNA3.1(+) construct made in house

[2] = biological target: T2, hMOR (Homo sapiens, UniProt P35372); test: cell-based
T2 construct: expressed in transfected cells; plasmid a gift from Dr. Nevin Lambert

[3] = biological target: T1, mMOR; test: [125I]BNtxA radioligand competition binding, mouse MOR; conditions: mean ± SEM, n = 3; [125I]BNtxA; read-out: Ki ± SEM mMOR
[4] = biological target: T1, mMOR; test: CAMYEL BRET antagonism assay at mMOR (inhibition of DAMGO); format: cell-based; conditions: for Antagonist activity at mMOR, raw signal (single replicate values): source data of Fig 8a and Table 5, listed as C11-Cl-7OH (23);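 on Antagonist activity at mMOR, raw signal (single replicate values): BRET signal rises as cAMP falls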
[5] = biological target: T2, hMOR; test: CAMYEL BRET cAMP agonist assay at hMOR; format: cell-based; conditions: for cAMP %: hMOR, single replicates, source data Fig 6c, listed as C11-Cl-7OH (23)
[6] = biological target: hDOR (Homo sapiens, UniProt P41143); test: CAMYEL BRET cAMP agonist assay at hDOR; format: cell-based; conditions: for Agonist activity of 7OH analogs at hDOR: single replicate values, Supplementary Figure 7A
[7] = biological target: T3, mDOR (Mus musculus, UniProt P32300); test: [125I]BNtxA radioligand competition binding, mouse DOR; conditions: mean ± SEM, n = 3; [125I]BNtxA; read-out: Ki ± SEM mDOR
T3 construct: expressed in transfected cells

[8] = system: CD1 mice; test: Tail-flick antinociception in CD1 mice; format: in vivo, mouse; conditions: 5 or 25 mg/kg s.c., CD1 mice, time course

T1 sequence (P42866 whole entry): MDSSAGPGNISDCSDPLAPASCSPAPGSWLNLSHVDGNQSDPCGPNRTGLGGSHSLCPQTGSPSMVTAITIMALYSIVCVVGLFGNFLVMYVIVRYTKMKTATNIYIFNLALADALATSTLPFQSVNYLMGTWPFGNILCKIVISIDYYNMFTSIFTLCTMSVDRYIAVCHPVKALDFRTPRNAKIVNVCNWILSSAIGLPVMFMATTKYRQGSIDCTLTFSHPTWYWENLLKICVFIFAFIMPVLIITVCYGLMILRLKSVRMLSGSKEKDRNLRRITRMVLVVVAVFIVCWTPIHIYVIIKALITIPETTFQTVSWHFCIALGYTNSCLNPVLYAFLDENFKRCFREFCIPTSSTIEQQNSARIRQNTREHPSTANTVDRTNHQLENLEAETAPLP
T2 sequence (P35372 whole entry): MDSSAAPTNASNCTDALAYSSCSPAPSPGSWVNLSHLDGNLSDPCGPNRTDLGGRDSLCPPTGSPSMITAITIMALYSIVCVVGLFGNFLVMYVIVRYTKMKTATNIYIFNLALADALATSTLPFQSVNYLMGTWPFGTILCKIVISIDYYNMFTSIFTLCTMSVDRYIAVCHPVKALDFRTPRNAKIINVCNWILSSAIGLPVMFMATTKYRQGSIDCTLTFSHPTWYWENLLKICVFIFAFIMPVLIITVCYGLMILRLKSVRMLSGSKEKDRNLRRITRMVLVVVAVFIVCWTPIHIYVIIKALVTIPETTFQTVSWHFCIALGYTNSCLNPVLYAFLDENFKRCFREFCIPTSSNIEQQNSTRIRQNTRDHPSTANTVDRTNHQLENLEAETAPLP
Sequence of hDOR (P41143 whole entry): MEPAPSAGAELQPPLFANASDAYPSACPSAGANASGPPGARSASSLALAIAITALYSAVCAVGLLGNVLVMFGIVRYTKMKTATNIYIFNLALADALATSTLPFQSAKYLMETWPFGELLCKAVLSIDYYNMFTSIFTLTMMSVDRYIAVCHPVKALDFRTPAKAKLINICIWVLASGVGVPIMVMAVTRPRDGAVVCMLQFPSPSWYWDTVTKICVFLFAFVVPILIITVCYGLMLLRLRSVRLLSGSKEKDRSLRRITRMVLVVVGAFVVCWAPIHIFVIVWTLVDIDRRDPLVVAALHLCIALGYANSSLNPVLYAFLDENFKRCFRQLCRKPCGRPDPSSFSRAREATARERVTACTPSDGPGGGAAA
T3 sequence (P32300 whole entry): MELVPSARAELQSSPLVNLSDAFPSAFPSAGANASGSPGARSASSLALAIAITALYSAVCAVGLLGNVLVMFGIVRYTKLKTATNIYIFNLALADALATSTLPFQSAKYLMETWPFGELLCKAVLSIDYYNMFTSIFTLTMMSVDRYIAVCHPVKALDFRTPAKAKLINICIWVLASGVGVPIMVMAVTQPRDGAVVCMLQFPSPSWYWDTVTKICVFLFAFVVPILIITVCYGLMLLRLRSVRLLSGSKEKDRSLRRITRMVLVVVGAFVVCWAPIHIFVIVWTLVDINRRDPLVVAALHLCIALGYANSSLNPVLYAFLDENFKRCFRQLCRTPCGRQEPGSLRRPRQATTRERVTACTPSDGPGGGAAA

SMILES: CC[C@@H]1CN2CC[C@@]3(O)C(=Nc4cc(Cl)cc(OC)c43)[C@@H]2C[C@@H]1/C(=C\OC)C(=O)OC [11-Cl-7OH (23), 11-Cl-7OH]
- cAMP % ([1]; Log[drug] (M) -13, single replicates, source data Fig 6b, cAMP inhibition as % of DAMGO, listed as C11-Cl-7OH (23)): -0.5682% and 13.1006% and 15.0829% and 7.325% and 4.046% and 5.291% and 0.9156% and 1.033% and -1.949%
- Emax ([1]; maximal inhibitory effect on cAMP levels relative to DAMGO): 13%
- EC50 ([1]; n = 3, read-out: EC50): 841 nM
- IC50 [2]: 920 nM
- Ki [3]: 27.1 ± 1.1 nM
- IC50 [4]: 320 nM
- Antagonist activity at mMOR, raw signal (single replicate values) ([4]; Log[drug] (M) -5): 0.05136 and 0.05514 and 0.02734 and 0.03399 and 0.05638 and 0.03174 and 0.0604 and 0.04123 and 0.04243
- Antagonist activity at mMOR, raw signal (single replicate values) ([4]; Log[drug] (M) -6): 0.06527 and 0.08059 and 0.08038 and 0.07596 and 0.06694 and 0.07308 and 0.08894 and 0.05009 and 0.07552
- Antagonist activity at mMOR, raw signal (single replicate values) ([4]; Log[drug] (M) -7): 0.171 and 0.1656 and 0.1405 and 0.1722 and 0.164 and 0.1548 and 0.1502 and 0.1538 and 0.167
- Antagonist activity at mMOR, raw signal (single replicate values) ([4]; Log[drug] (M) -8): 0.2056 and 0.1941 and 0.1944 and 0.1853 and 0.1938 and 0.208 and 0.1628 and 0.1712 and 0.1714
- Antagonist activity at mMOR, raw signal (single replicate values) ([4]; Log[drug] (M) -9): 0.1978 and 0.1907 and 0.2036 and 0.185 and 0.2114 and 0.2034 and 0.1755 and 0.1681 and 0.1723
- Antagonist activity at mMOR, raw signal (single replicate values) ([4]; Log[drug] (M) -10): 0.2063 and 0.2294 and 0.2076 and 0.2027 and 0.2013 and 0.2029 and 0.1793 and 0.1909 and 0.175
- Antagonist activity at mMOR, raw signal (single replicate values) ([4]; Log[drug] (M) -11): 0.1963 and 0.2104 and 0.2086 and 0.1881 and 0.2054 and 0.206 and 0.1763 and 0.1632 and 0.1788
- EC50 [5]: 717 nM
- Emax [5]: 23%
- cAMP % ([5]; Log[drug] (M) -5): 24.2611% and 22.8658% and 18.7916% and 30.0534% and 27.3903% and 24.7857% and 23.2679% and 13.839% and 17.3142%
- cAMP % ([5]; Log[drug] (M) -6): 9.687% and 7.44% and 12.4984% and 21.3658% and 16.0104% and 20.3589% and 22.2511% and 5.161% and 10.3498%
- cAMP % ([5]; Log[drug] (M) -7): 10.7608% and 2.692% and 16.2864% and 16.6401% and 9.757% and 17.1458% and 11.7292% and -1.4445% and 4.302%
- cAMP % ([5]; Log[drug] (M) -8): -0.5618% and -5.878% and 6.44% and 1.224% and 16.3686% and 4.4% and 2.431% and 4.114% and 14.2353%
- cAMP % ([5]; Log[drug] (M) -9): 10.2691% and 5.0211% and 7.383% and 19.7872% and -6.277% and -5.837% and 8.258% and 7.437% and 22.4848%
- cAMP % ([5]; Log[drug] (M) -10): 8.636% and -0.2251% and 3.667% and 1.365% and 3.739% and -5.1037% and -3.2997% and -3.028% and 15.0493%
- cAMP % ([5]; Log[drug] (M) -11): 5.568% and -0.09872% and -1.208% and 11.7024% and 0.1582% and 4.468% and 2.344% and 1.001% and -3.345%
- cAMP % ([5]; Log[drug] (M) -13, cAMP inhibition as % of DAMGO): 15.4388% and 3.989% and -0.7984% and 3.857% and -0.6743% and 5.111% and -4.4777% and 4.879% and 4.064%
- Agonist activity of 7OH analogs at hDOR ([6]; Log[drug] (M) -5): 17.1397 and 15.6735 and 17.1747 and 8.18 and -3.544 and 1.305 and 21.6642 and 15.0671 and 20.6929
- Agonist activity of 7OH analogs at hDOR ([6]; Log[drug] (M) -6): 30.6083 and 25.9231 and 32.3513 and 1.677 and 12.7082 and 9.625 and 17.2797 and 6.922 and 2.636
- Agonist activity of 7OH analogs at hDOR ([6]; Log[drug] (M) -7): 15.9329 and 22.4846 and 15.3548 and 1.086 and 2.267 and 6.255 and -1.22 and -1.151 and 2.37
- Agonist activity of 7OH analogs at hDOR ([6]; Log[drug] (M) -8): 13.6904 and 16.1168 and 10.9974 and 2.935 and -7.546 and 4.612 and 5.7671 and 0.4715 and 17.0267
- Agonist activity of 7OH analogs at hDOR ([6]; Log[drug] (M) -9): 23.852 and 14.4843 and 22.6626 and 18.4578 and 15.1232 and 4.553 and 18.1791 and 11.0147 and 18.7534
- Agonist activity of 7OH analogs at hDOR ([6]; Log[drug] (M) -10): 5.724 and 19.2021 and 4.266 and 3.553 and -1.827 and 11.1585 and 2.694 and 3.131 and 7.14
- Agonist activity of 7OH analogs at hDOR ([6]; Log[drug] (M) -11): 7.339 and 12.4107 and 20.099 and 7.6883 and 4.754 and 8.248 and 8.188 and 1.326 and 2.427
- Agonist activity of 7OH analogs at hDOR ([6]; Log[drug] (M) -13): -6.485 and 2.218 and 4.267 and 9.369 and -0.6447 and 11.9855 and 0.02092 and 7.539 and 4.083
- Emax ([6]; hDOR cAMP BRET, positive control DPDPE): very low efficacy
- Ki [7]: 47.2 ± 2.4 nM
- analgesic effect in tail-flick [8]: no analgesic effect
